Data published in patent publication US8536202B2, “Triazole-substituted anthranilamides as pesticides” (Bayer Cropscience AG, priority 2010, dated 2013).
Like-named read-outs stand apart in the source and are kept apart here.

Legend:
[1] = tested on: larvae of the mustard beetle (Phaedon cochleariae); test: Phaedon test (PHAECO spray treatment); format: in vivo; conditions: 168 h, after 7 days; for pest or weed control at 100 g/ha: read-out: activity in %
In short: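 Compound dissolved in acetone/dimethylformamide with alkylaryl polyglycol ether emulsifier, then diluted with emulsifier-containing water to test concentration for spray treatment of Phaedon cochleariae larvae. Activity scored after 7 days as % larvae killed (100% = all dead, 0% = none).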

[2] = tested on: green peach aphid (Myzus persicae); test: Myzus test (MYZUPE spray treatment), Use Example 4; format: in vivo; conditions: 144 h, after 6 days; for pest or weed control at 100 g/ha: read-out: activity in %
Method: Solvents: 78 parts by weight of acetone • • 1.5 parts by weight of dimethylformamide
Emulsifier: 0.5 part by weight of alkylaryl polyglycol ether
An appropriate preparation of active compound is prepared by mixing 1 part by weight of active compound with the stated amounts of solvents and emulsifier and diluting the concentrate with emulsifier-containing water to the desired concentration.
Leaf discs of Chinese cabbage (Brassica pekinensis) infested by all stages of the green peach aphid (Myzus persicae) are sprayed with a preparation of active compound at the desired concentration.
After 6 days, the activity in % is ascertained. Here, 100% means that all of the aphids have been killed; 0% means that no aphids have been killed.

[3] = tested on: caterpillars of the armyworm (Spodoptera frugiperda); test: Spodoptera frugiperda test (SPODFR spray treatment); format: in vivo; conditions: 168 h, after 7 days; for pest or weed control at 100 g/ha: read-out: activity in %
In short: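 Maize leaf discs sprayed with compound diluted in emulsifier-containing water (acetone/DMF solvent, alkylaryl polyglycol ether emulsifier), dried, then infested with armyworm caterpillars. Kill scored after 7 days as % mortality, 100% = all caterpillars dead, 0% = none.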

[4] = log P determination by HPLC on reversed-phase columns (EEC Directive 79/831 Annex V.A8); format: physicochemical; conditions: pH 2.7
In short: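 log P from reversed-phase LC-MS retention at pH 2.7, 0.1% formic acid water/acetonitrile gradient 10–95% acetonitrile. Calibrated against C3–C16 unbranched alkan-2-ones, interpolating linearly between adjacent alkanones.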

[5] = reversed-phase C18 HPLC column, HPLC on reversed-phase columns (C 18), EEC Directive 79/831 Annex V.A8, read-out: logP

chromatographic logP [4, 5] | SMILES | pest or weed control at 500 g/ha ([1]; 500 g/ha) | pest or weed control at 20 g/ha [2] | pest or weed control at 100 g/ha [3] | chromatographic logP [4] | pest or weed control at 100 g/ha [1] | pest or weed control at 100 g/ha [2] | pest or weed control at 20 g/ha [3]
 | CCNC(=O)c1cc(C#N)cc(C)c1NC(=O)c1cc(Cn2cc(C(F)(F)F)nn2)nn1-c1ncccc1Cl [Example 180] | 100% | 100% | 100% | 2.49 |  |  | 
 | Cc1cc(C#N)cc(C(=O)NC(C)(C)C)c1NC(=O)c1cc(Cn2cc(C(F)(F)F)nn2)nn1-c1ncccc1Cl [Example 182] |  |  | 100% | 2.97 | 100% | 100% | 
 | Cc1cc(C#N)cc(C(N)=O)c1NC(=O)c1cc(Cn2cc(C(F)(F)F)nn2)nn1-c1ncccc1Cl [Example 184] |  | 100% | 100% | 2.12 | 100% |  | 
 | Cc1cc(C#N)cc(C(=O)NCC2CC2)c1NC(=O)c1cc(Cn2cc(C(F)(F)F)nn2)nn1-c1ncccc1Cl [Example 185] |  |  | 100% | 2.81 | 100% | 90% | 
 | CNC(=O)c1cc(Cl)cc(C)c1NC(=O)c1cc(Cn2cc(C(F)(F)F)nn2)nn1-c1ncccc1Cl [Example 187] |  |  | 100% | 2.6 | 100% | 100% | 
 | CCNC(=O)c1cc(Cl)cc(C)c1NC(=O)c1cc(Cn2cc(C(F)(F)F)nn2)nn1-c1ncccc1Cl [Example 189] |  |  | 100% | 2.9 | 100% | 80% | 
 | Cc1cc(Cl)cc(C(N)=O)c1NC(=O)c1cc(Cn2cc(C(F)(F)F)nn2)nn1-c1ncccc1Cl [Example 192] |  |  | 100% | 2.44 | 100% | 100% | 
 | Cc1cc(Cl)cc(C(=O)NC(C)C2CC2)c1NC(=O)c1cc(Cn2cc(C(F)(F)F)nn2)nn1-c1ncccc1Cl (centres unmarked) [Example 193] |  |  | 100% | 3.34 | 100% | 100% | 
 | CSC[C@H](C)NC(=O)c1cc(Cl)cc(C)c1NC(=O)c1cc(Cn2cc(C(F)(F)F)nn2)nn1-c1ncccc1Cl [Example 194] |  |  | 100% | 3.35 | 100% | 100% | 
 | Cc1cc(Cl)cc(C(=O)NCC#N)c1NC(=O)c1cc(Cn2cc(C(F)(F)F)nn2)nn1-c1ncccc1Cl [Example 196] |  |  | 100% | 2.61 | 100% | 100% | 
 | CNC(=O)c1cc(Cl)cc(Cl)c1NC(=O)c1cc(Cn2cc(C(F)(F)F)nn2)nn1-c1ncccc1Cl [Example 197] |  |  | 100% | 2.59 | 100% | 90% | 
 | CC(C)(C)NC(=O)c1cc(Cl)cc(Cl)c1NC(=O)c1cc(Cn2cc(C(F)(F)F)nn2)nn1-c1ncccc1Cl [Example 201] |  |  | 100% | 3.42 | 100% | 100% | 
 | NC(=O)c1cc(Cl)cc(Cl)c1NC(=O)c1cc(Cn2cc(C(F)(F)F)nn2)nn1-c1ncccc1Cl [Example 203] |  |  | 100% | 2.43 | 100% | 100% | 
 | CSC[C@H](C)NC(=O)c1cc(I)cc(C)c1NC(=O)c1cc(Cn2cc(C(F)(F)F)nn2)nn1-c1ncccc1Cl [Example 212] |  |  | 100% | 3.59 | 100% | 100% | 
 | Cc1cc(I)cc(C(N)=O)c1NC(=O)c1cc(Cn2cc(C(F)(F)F)nn2)nn1-c1ncccc1Cl [Example 213] |  |  | 100% | 2.64 | 100% | 100% | 
 | Cc1cc(I)cc(C(=O)NCC#N)c1NC(=O)c1cc(Cn2cc(C(F)(F)F)nn2)nn1-c1ncccc1Cl [Example 215] |  |  | 100% | 2.82 | 100% | 90% | 

chromatographic logP [4, 5] | SMILES | pest or weed control at 500 g/ha ([1]; 500 g/ha) | pest or weed control at 20 g/ha [2] | pest or weed control at 100 g/ha [3] | chromatographic logP [4] | pest or weed control at 100 g/ha [1] | pest or weed control at 100 g/ha [2] | pest or weed control at 20 g/ha [3]
 | CNC(=O)c1cc(C#N)cc(C)c1NC(=O)c1cc(Cn2cc(C(F)(C(F)(F)F)C(F)(F)F)nn2)nn1-c1ncccc1Cl [Example 217] |  |  | 100% | 3.03 | 100% | 100% | 
3.44 | Cc1cc(C#N)cc(C(=O)NC(C)C)c1NC(=O)c1cc(Cn2cc(C(F)(C(F)(F)F)C(F)(F)F)nn2)nn1-c1ncccc1Cl [Example 219] |  |  | 100% |  | 100% | 80% | 
3.75 | Cc1cc(C#N)cc(C(=O)NC(C)(C)C)c1NC(=O)c1cc(Cn2cc(C(F)(C(F)(F)F)C(F)(F)F)nn2)nn1-c1ncccc1Cl [Example 220] |  |  |  |  | 100% | 100% | 100%
3.52 | Cc1cc(C#N)cc(C(=O)NCC2CC2)c1NC(=O)c1cc(Cn2cc(C(F)(C(F)(F)F)C(F)(F)F)nn2)nn1-c1ncccc1Cl [Example 221] |  |  | 100% |  | 100% | 80% | 
3.63 | CSC[C@H](C)NC(=O)c1cc(C#N)cc(C)c1NC(=O)c1cc(Cn2cc(C(F)(C(F)(F)F)C(F)(F)F)nn2)nn1-c1ncccc1Cl [Example 222] |  |  | 100% |  | 100% | 100% | 
 | Cc1cc(C#N)cc(C(N)=O)c1NC(=O)c1cc(Cn2cc(C(F)(C(F)(F)F)C(F)(F)F)nn2)nn1-c1ncccc1Cl [Example 223] |  |  |  | 2.84 | 100% | 100% | 100%
3.24 | Cc1cc(C#N)cc(C(=O)NC2CC2)c1NC(=O)c1cc(Cn2cc(C(F)(C(F)(F)F)C(F)(F)F)nn2)nn1-c1ncccc1Cl [Example 224] |  |  | 100% |  | 100% | 80% | 
 | CNC(=O)c1cc(Cl)cc(C)c1NC(=O)c1cc(Cn2cc(C(F)(C(F)(F)F)C(F)(F)F)nn2)nn1-c1ncccc1Cl [Example 225] |  |  |  | 3.36 | 100% | 100% | 100%
4.19 | Cc1cc(Cl)cc(C(=O)NC(C)(C)C)c1NC(=O)c1cc(Cn2cc(C(F)(C(F)(F)F)C(F)(F)F)nn2)nn1-c1ncccc1Cl [Example 228] |  |  | 100% |  | 100% | 80% | 
4.04 | CSC[C@H](C)NC(=O)c1cc(Cl)cc(C)c1NC(=O)c1cc(Cn2cc(C(F)(C(F)(F)F)C(F)(F)F)nn2)nn1-c1ncccc1Cl [Example 230] |  |  | 100% |  | 100% | 80% | 
4.26 | CSC[C@H](C)NC(=O)c1cc(I)cc(C)c1NC(=O)c1cc(Cn2cc(C(F)(C(F)(F)F)C(F)(F)F)nn2)nn1-c1ncccc1Cl [Example 238] |  |  | 100% |  | 100% | 100% | 
4.02 | CSC[C@H](C)NC(=O)c1cc(Cl)cc(Cl)c1NC(=O)c1cc(Cn2cc(C(F)(C(F)(F)F)C(F)(F)F)nn2)nn1-c1ncccc1Cl [Example 246] |  |  | 100% |  | 100% | 80% | 
 | CNC(=O)c1cc(C#N)cc(C)c1NC(=O)c1cc(Cn2ncc(C(F)(C(F)(F)F)C(F)(F)F)n2)nn1-c1ncccc1Cl [Example 249] |  |  | 100% | 3.39 | 100% | 80% | 
4.06 | CSC[C@H](C)NC(=O)c1cc(C#N)cc(C)c1NC(=O)c1cc(Cn2ncc(C(F)(C(F)(F)F)C(F)(F)F)n2)nn1-c1ncccc1Cl [Example 254] |  |  | 100% |  | 100% | 80% | 
 | Cc1cc(C#N)cc(C(N)=O)c1NC(=O)c1cc(Cn2ncc(C(F)(C(F)(F)F)C(F)(F)F)n2)nn1-c1ncccc1Cl [Example 255] |  |  | 100% | 3.19 | 100% | 80% | 
4.45 | CSC[C@H](C)NC(=O)c1cc(Cl)cc(C)c1NC(=O)c1cc(Cn2ncc(C(F)(C(F)(F)F)C(F)(F)F)n2)nn1-c1ncccc1Cl [Example 262] |  |  | 100% |  | 100% | 80% | 
